pIC50: −log10 of the molar value.
Molecular target: TRKA (Homo sapiens (Human), UniProt P04629)
Test: Isolated TRK enzyme assay (HTRF KinEASE-TK), TRKA
Format: biochemical
Conditions: read-out: Trka enzyme (IC50)

TRKA, sequence (P04629 441-796): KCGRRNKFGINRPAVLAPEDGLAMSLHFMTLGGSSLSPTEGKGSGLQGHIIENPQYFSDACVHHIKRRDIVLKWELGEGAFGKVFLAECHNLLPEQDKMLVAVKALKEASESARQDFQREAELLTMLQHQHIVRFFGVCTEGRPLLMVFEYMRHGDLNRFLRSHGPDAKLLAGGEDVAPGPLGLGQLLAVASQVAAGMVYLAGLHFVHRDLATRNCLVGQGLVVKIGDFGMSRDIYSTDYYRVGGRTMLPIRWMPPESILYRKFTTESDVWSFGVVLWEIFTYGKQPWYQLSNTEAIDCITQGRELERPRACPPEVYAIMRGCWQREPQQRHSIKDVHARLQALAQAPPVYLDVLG

pIC50 | SMILES
7.15 | CC(C)n1cc(C(=O)c2cncc(NC(=O)Cc3cccc(S(C)(=O)=O)c3)c2)c2cnc(N)nc21 [Example 247, N-{5-[(2-amino-7-isopropyl-7H-pyrrolo[2,3-d]pyrimidin-5-yl)carbonyl]pyridin-3-yl}-2-[3-(methylsulfonyl)phenyl]acetamide]
8.46 | CC(C)n1cc(C(=O)c2cncc(NC(=O)Cc3ccc(Cl)cc3)c2)c2cnc(N)nc21 [Example 250, N-{5-[(2-amino-7-isopropyl-7H-pyrrolo[2,3-d]pyrimidin-5-yl)carbonyl]pyridin-3-yl}-2-(4-chlorophenyl)acetamide]
8.96 | CC(C)(CO)n1cc(C(=O)c2cncc(NC(=O)Cc3cccc(C(F)(F)F)c3)c2)c2cnc(N)nc21 [Example 256, N-(5-{[2-amino-7-(2-hydroxy-1,1-dimethylethyl)-7H-pyrrolo[2,3-d]pyrimidin-5-yl]carbonyl}pyridin-3-yl)-2-[3-(trifluoromethyl)phenyl]acetamide]
7.91 | CC(C)(CO)n1cc(C(=O)c2cncc(NC(=O)Cc3ccc4ocnc4c3)c2)c2cnc(N)nc21 [Example 257, N-(5-{[2-amino-7-(2-hydroxy-1,1-dimethylethyl)-7H-pyrrolo[2,3-d]pyrimidin-5-yl]carbonyl}pyridin-3-yl)-2-(1,3-benzoxazol-5-yl)acetamide]
7.93 | CC(C)(CO)n1cc(C(=O)c2cncc(NC(=O)Cc3cccc(S(C)(=O)=O)c3)c2)c2cnc(N)nc21 [Example 258, N-(5-{[2-amino-7-(2-hydroxy-1,1-dimethylethyl)-7H-pyrrolo[2,3-d]pyrimidin-5-yl]carbonyl}pyridin-3-yl)-2-[3-(methylsulfonyl)phenyl]acetamide]

Second part, the molecule before the results:

SMILES | pIC50
CC(C)c1cn(CC(=O)Nc2cncc(C(=O)c3cn(C(C)C)c4nc(N)ncc34)c2)nn1 [Example 248, N-{5-[(2-amino-7-isopropyl-7H-pyrrolo[2,3-d]pyrimidin-5-yl)carbonyl]pyridin-3-yl}-2-(4-isopropyl-1H-1,2,3-triazol-1-yl)acetamide] | 7.63
CC(C)n1cc(C(=O)c2cncc(NC(=O)Cn3cc(C4CC4)nn3)c2)c2cnc(N)nc21 [Example 249, N-{5-[(2-amino-7-isopropyl-7H-pyrrolo[2,3-d]pyrimidin-5-yl)carbonyl]pyridin-3-yl}-2-(4-cyclopropyl-1H-1,2,3-triazol-1-yl)acetamide] | 7.45
CC(C)n1ncc(CC(=O)Nc2cncc(C(=O)c3cn(C(C)C)c4nc(N)ncc34)c2)c1C(F)(F)F [Example 251, N-{5-[(2-amino-7-isopropyl-7H-pyrrolo[2,3-d]pyrimidin-5-yl)carbonyl]pyridin-3-yl}-2-[1-isopropyl-5-(trifluoromethyl)-1H-pyrazol-4-yl]acetamide] | 7.48
CC(C)n1cc(C(=O)c2cncc(NC(=O)Cn3ccc(C(F)(F)F)n3)c2)c2cnc(N)nc21 [Example 252, N-{5-[(2-amino-7-isopropyl-7H-pyrrolo[2,3-d]pyrimidin-5-yl)carbonyl]pyridin-3-yl}-2-[3-(trifluoromethyl)-1H-pyrazol-1-yl]acetamide] | 8.29
CC(C)n1cc(C(=O)c2cncc(NC(=O)Cn3ccc(C4CC4)n3)c2)c2cnc(N)nc21 [Example 253, N-{5-[(2-amino-7-isopropyl-7H-pyrrolo[2,3-d]pyrimidin-5-yl)carbonyl]pyridin-3-yl}-2-(3-cyclopropyl-1H-pyrazol-1-yl)acetamide] | 8.41
CC(C)n1cc(CC(=O)Nc2cncc(C(=O)c3cn(C(C)C)c4nc(N)ncc34)c2)c(C(F)(F)F)n1 [Example 254, N-{5-[(2-amino-7-isopropyl-7H-pyrrolo[2,3-d]pyrimidin-5-yl)carbonyl]pyridin-3-yl}-2-[1-isopropyl-3-(trifluoromethyl)-1H-pyrazol-4-yl]acetamide] | 7.28
CC(C)n1cc(C(=O)c2cncc(NC(=O)Cc3ccc(C#N)cn3)c2)c2cnc(N)nc21 [Example 255, N-{5-[(2-amino-7-isopropyl-7H-pyrrolo[2,3-d]pyrimidin-5-yl)carbonyl]pyridin-3-yl}-2-(5-cyanopyridin-2-yl)acetamide] | 7.37
